# Test results: article PMC8635440 (Science Advances, 2021)
# pKd: −log10 of the molar value. Positions of bridges follow the written chain, without caps; N, C: chain ends. Non-standard residues stand in square brackets, D forms with d. Residues, ends and D or L forms follow the SMILES beside them.
# Columns and labels:
# retromer holo-complex = retromer holo-complex (Homo sapiens, UniProt O75436+Q96QK1+Q9UBQ0); experiment: Differential scanning fluorimetry of retromer; assay type: binding; settings: DSF
# Vps29 = Vps29 (Homo sapiens, UniProt Q9UBQ0); experiment: Differential scanning fluorimetry of Vps29; assay type: binding; settings: DSF, 20-fold molar excess
# SNX27PDZ into Retromer = SNX27PDZ into Retromer (Homo sapiens, UniProt O75436+Q96QK1+Q9UBQ0); experiment: ITC of SNX27PDZ into retromer in presence of cyclic peptide; assay type: binding, mouse SNX27; settings: 1.3 mM SNX27PDZ into 30 μM retromer + 150 μM peptide; native (DMSO) 13.0 ± 0.5
# [1] = tested on: TBC1D5 localization in HeLa cells; experiment: TBC1D5 endosomal localization after SLO delivery of peptide; assay type: cell-based, human; settings: 2 hours recovery, colocalization with SNX1
# [2] = target: GST-TBC1D5TBC binding to retromer (Homo sapiens, UniProt O75436+Q96QK1+Q9UBQ0); experiment: GST pull-down assay; settings: GST pulldown, purified proteins
# TBC1D5TBC into Retromer = TBC1D5TBC into Retromer (Homo sapiens, UniProt O75436+Q96QK1+Q9UBQ0); experiment: ITC of TBC1D5TBC into retromer in presence of cyclic peptide; assay type: binding; settings: native 370 nM
# Solubility observations = assay type: physicochemical; settings: ITC buffer
# Vps26A = Vps26A (Homo sapiens, UniProt O75436); experiment: Differential scanning fluorimetry of Vps26A; assay type: binding; settings: DSF, control experiment
# [3] = target: retromer binding to SNX3–CI-MPR cargo-PtdIns3P liposomes (Homo sapiens, UniProt O75436+Q96QK1+Q9UBQ0); experiment: Liposome binding assay; settings: Folch I liposomes, 7 μM retromer-SNX3
# ctRetromer = target: T1, ctRetromer (Thermochaetoides thermophila, UniProt G0S0E6+G0S709); experiment: ITC binding to C. thermophilum retromer; design: species or system Chaetomium thermophilum; settings: 25°C
# T1 sequence (G0S709 1-869): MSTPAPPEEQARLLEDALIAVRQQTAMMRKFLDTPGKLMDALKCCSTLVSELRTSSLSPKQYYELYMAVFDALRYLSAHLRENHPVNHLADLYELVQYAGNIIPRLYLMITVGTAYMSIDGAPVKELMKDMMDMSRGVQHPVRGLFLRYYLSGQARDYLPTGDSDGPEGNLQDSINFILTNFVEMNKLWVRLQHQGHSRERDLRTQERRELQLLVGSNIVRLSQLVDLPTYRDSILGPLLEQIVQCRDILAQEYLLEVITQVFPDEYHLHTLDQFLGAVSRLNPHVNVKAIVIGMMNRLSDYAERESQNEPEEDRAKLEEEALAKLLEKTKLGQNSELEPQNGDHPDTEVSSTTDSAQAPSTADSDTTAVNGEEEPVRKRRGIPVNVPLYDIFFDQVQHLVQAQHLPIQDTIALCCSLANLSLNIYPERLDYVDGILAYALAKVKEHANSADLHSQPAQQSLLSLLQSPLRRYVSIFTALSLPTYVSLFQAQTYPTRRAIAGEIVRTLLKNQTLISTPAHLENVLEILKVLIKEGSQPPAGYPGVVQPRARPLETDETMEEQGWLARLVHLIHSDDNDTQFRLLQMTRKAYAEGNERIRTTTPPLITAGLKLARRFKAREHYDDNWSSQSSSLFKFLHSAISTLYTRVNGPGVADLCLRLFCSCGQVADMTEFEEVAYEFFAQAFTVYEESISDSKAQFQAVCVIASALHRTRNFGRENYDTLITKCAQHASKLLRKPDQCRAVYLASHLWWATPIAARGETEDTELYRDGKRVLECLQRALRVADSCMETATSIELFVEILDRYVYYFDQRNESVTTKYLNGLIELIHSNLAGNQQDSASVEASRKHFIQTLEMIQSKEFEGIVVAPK
# T1 sequence (G0S0E6 1-316): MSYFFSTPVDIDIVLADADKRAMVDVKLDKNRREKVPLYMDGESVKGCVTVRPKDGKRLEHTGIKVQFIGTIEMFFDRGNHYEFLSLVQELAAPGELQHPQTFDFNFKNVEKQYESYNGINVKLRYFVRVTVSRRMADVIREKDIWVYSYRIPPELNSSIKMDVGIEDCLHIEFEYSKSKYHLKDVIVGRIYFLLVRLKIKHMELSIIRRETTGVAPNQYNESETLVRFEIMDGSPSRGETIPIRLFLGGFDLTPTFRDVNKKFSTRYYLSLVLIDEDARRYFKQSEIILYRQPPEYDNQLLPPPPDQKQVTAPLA
# zfRetromer = zfRetromer (Danio rerio, UniProt A4QP42+Q6TNP8); experiment: ITC binding to zebrafish retromer
# [4] = target: Vps26A9-298_Vps351-390 (Δ C-term. tail complex) (Homo sapiens, UniProt O75436+Q96QK1); experiment: ITC binding to Vps26A ΔC-term. tail subcomplex; settings: 25°C, Vps26A C-terminal tail removed
# [5] = target: Vps26A-Vps35_1–390 subcomplex (Homo sapiens, UniProt O75436+Q96QK1); experiment: Differential scanning fluorimetry of Vps26A-Vps35 1-390; assay type: binding; settings: DSF
# [6] = target: Rab7a with TBC1D5TBC and retromer (Homo sapiens, UniProt O75436+Q96QK1+Q9UBQ0); experiment: GTPase activity assay; assay type: biochemical; settings: 10 μM Rab7a, 3 μM TBC1D5TBC, 6 μM retromer, 60 μM peptide
# Vps26BΔC-Vps35_1–390 = Vps26BΔC-Vps35_1–390 (UniProt Q8C0E2+Q96QK1); experiment: ITC binding to Vps26B ΔC-term. tail subcomplex; design: species or system mouse Vps26B, human Vps35
# [7] = target: retromer and its ligands in HeLa cell lysates (Homo sapiens, UniProt O75436+Q96QK1+Q9UBQ0); experiment: Biotinylated cyclic peptide pull-down from HeLa cell lysates; assay type: binding; settings: streptavidin agarose, Western blotting
# [8] = target: human retromer complex (Vps35-[change]-Vps29) (human) (UniProt Q96QK1); experiment: ITC
compound,measurement,setting,value
N=C(N)SCc1ccc(CSC(=N)N)s1 [R55],impact on thermal stability (Tm) of retromer,"retromer holo-complex; 3 µM Retromer, 60 μM compound or 30-fold molar excess of peptide",unable to detect significant improvement
same,impact on Retromer stability,retromer holo-complex; 1 mM (>300-fold molar excess),little impact
CC[C@H](C)[C@@H]1NC(=O)[C@H]([C@@H](C)CC)NC(=O)[C@@H](Cc2ccc(O)cc2)NC(=O)CSC[C@@H](C(N)=O)NC(=O)[C@H](CCCNC(=N)N)NC(=O)[C@H](CCCCN)NC(=O)[C@H](CC(C)C)NC(=O)[C@H](CO)NC(=O)[C@H](CO)NC(=O)[C@H](CC(C)C)NC(=O)[C@H](Cc2ccccc2)NC(=O)[C@H](C(C)C)NC(=O)CNC(=O)[C@H](CC(C)C)NC(=O)[C@@H]2CCCN2C(=O)[C@H]([C@@H](C)O)NC(=O)[C@H](CC(=O)O)NC1=O [RT-D1] ({CH2CO}-[dY]IIDTPLGVFLSSLKRC-NH2; thioether N-17),effect on melting temperature (Tm) of Vps29,Vps29,increased
CC[C@H](C)[C@@H]1NC(=O)[C@H](CCCNC(=N)N)NC(=O)[C@@H]2CCCN2C(=O)[C@H](Cc2ccccc2)NC(=O)[C@H]([C@@H](C)O)NC(=O)CNC(=O)[C@H](CC(C)C)NC(=O)[C@@H]2CCCN2C(=O)[C@H]([C@@H](C)O)NC(=O)[C@H](Cc2c[nH]c3ccccc23)NC(=O)[C@H](Cc2ccc(O)cc2)NC(=O)[C@H]([C@@H](C)CC)NC(=O)[C@H]([C@@H](C)O)NC(=O)[C@H]([C@@H](C)O)NC(=O)[C@@H](Cc2ccc(O)cc2)NC(=O)CSC[C@@H](C(N)=O)NC(=O)[C@H](CCCNC(=N)N)NC1=O [RT-D2] ({CH2CO}-[dY]TTIYWTPLGTFPRIRC-NH2; thioether N-17),effect on melting temperature (Tm) of Vps29,Vps29,increased
CC(C)C[C@@H]1NC(=O)CNC(=O)[C@H](CC(C)C)NC(=O)[C@@H]2CCCN2C(=O)[C@H](CC(=O)O)NC(=O)[C@H](Cc2ccc(O)cc2)NC(=O)CNC(=O)[C@@H](Cc2ccc(O)cc2)NC(=O)CSC[C@@H](C(N)=O)NC(=O)[C@H](C)NC(=O)[C@H](Cc2ccccc2)NC(=O)[C@H](Cc2ccc(O)cc2)NC(=O)[C@H](CCCCN)NC1=O [RT-D3] ({CH2CO}-[dY]GYDPLGLKYFAC-NH2; thioether N-13),Kd,SNX27PDZ into Retromer,no impact
same,effect on TBC1D5 localization to endosomal structures,[1],significant dispersal
same,effect on GST-TBC1D5TBC interaction with retromer,[2],inhibited
same,Kd,TBC1D5TBC into Retromer,undetectable
same,effect on melting temperature (Tm) of Vps29,Vps29,increased
CC(C)C[C@@H]1NC(=O)[C@@H]2CCCN2C(=O)[C@H](CC(=O)O)NC(=O)[C@H](Cc2c[nH]c3ccccc23)NC(=O)CNC(=O)[C@@H](Cc2ccc(O)cc2)NC(=O)CSC[C@@H](C(N)=O)NC(=O)[C@H](C(C)C)NC(=O)[C@H](Cc2ccccc2)NC(=O)[C@H](Cc2ccc(O)cc2)NC(=O)[C@H](CC(N)=O)NC(=O)[C@H](C(C)C)NC(=O)[C@H](Cc2ccc(O)cc2)NC1=O [RT-D4] ({CH2CO}-[dY]GWDPLYVNYFVC-NH2; thioether N-13),solubility for ITC experiments,Solubility observations,not sufficiently soluble for ITC experiments
CC[C@H](C)[C@@H]1NC(=O)[C@H](Cc2ccc(O)cc2)NC(=O)CSC[C@@H](C(N)=O)NC(=O)CNC(=O)[C@H](Cc2c[nH]cn2)NC(=O)[C@H](CCCNC(=N)N)NC(=O)[C@H](CC(N)=O)NC(=O)[C@@H]2CCCN2C(=O)[C@H](Cc2ccccc2)NC(=O)[C@H]([C@@H](C)O)NC(=O)CNC(=O)[C@H](CC(C)C)NC(=O)[C@@H]2CCCN2C(=O)[C@H]([C@@H](C)O)NC(=O)[C@H](CCCCN)NC1=O [RT-L1] ({CH2CO}-YIKTPLGTFPNRHGC-NH2; thioether N-15),effect on melting temperature (Tm) of Vps29,Vps29,increased
CC[C@H](C)[C@@H]1NC(=O)[C@H]([C@@H](C)O)NC(=O)[C@@H]2CCCN2C(=O)[C@H](CC(C)C)NC(=O)[C@H](Cc2ccc(O)cc2)NC(=O)CSC[C@@H](C(N)=O)NC(=O)[C@H](CC(C)C)NC(=O)[C@@H]2CCCN2C(=O)[C@H](Cc2c[nH]cn2)NC(=O)[C@H](Cc2c[nH]c3ccccc23)NC(=O)[C@H](CC(C)C)NC(=O)[C@H](Cc2c[nH]cn2)NC(=O)CNC(=O)[C@H](C(C)C)NC(=O)CNC(=O)[C@H]([C@@H](C)O)NC1=O [RT-L2] ({CH2CO}-YLPTITGVGHLWHPLC-NH2; thioether N-16),effect on melting temperature (Tm) of Vps29,Vps29,increased
CC(C)C[C@@H]1NC(=O)[C@H](Cc2ccc(O)cc2)NC(=O)CSC[C@@H](C(N)=O)NC(=O)[C@H](CC(N)=O)NC(=O)[C@H](C(C)C)NC(=O)[C@H](Cc2ccc(O)cc2)NC(=O)[C@H](Cc2ccccc2)NC(=O)[C@H](CC(C)C)NC(=O)[C@H](CCCNC(=N)N)NC(=O)[C@H](C(C)C)NC(=O)[C@H](Cc2ccc(O)cc2)NC(=O)[C@H](CC(C)C)NC(=O)[C@@H]2CCCN2C(=O)[C@H](CC(=O)O)NC(=O)[C@H](Cc2ccccc2)NC(=O)[C@H](CCC(=O)O)NC1=O [RT-L3] ({CH2CO}-YLEFDPLYVRLFYVNC-NH2; thioether N-16),solubility for ITC experiments,Solubility observations,not sufficiently soluble for ITC experiments
CC[C@H](C)[C@@H]1NC(=O)[C@H](Cc2c[nH]c3ccccc23)NC(=O)[C@H](Cc2ccc(O)cc2)NC(=O)CSC[C@@H](C(N)=O)NC(=O)[C@H]([C@@H](C)O)NC(=O)[C@H](CO)NC(=O)[C@H](C(C)C)NC(=O)[C@H](Cc2ccc(O)cc2)NC(=O)[C@H](CCCNC(=N)N)NC(=O)[C@H](Cc2ccc(O)cc2)NC(=O)[C@H]([C@@H](C)O)NC(=O)[C@H]([C@@H](C)O)NC(=O)[C@H](Cc2c[nH]c3ccccc23)NC(=O)[C@H](CO)NC(=O)[C@H](CC(N)=O)NC(=O)[C@H](CO)NC1=O [RT-L4] ({CH2CO}-YWISNSWTTYRYVSTC-NH2; thioether N-16),effect on thermal stability of Vps26A alone,Vps26A,did not affect
same,retromer binding to SNX3–CI-MPR cargo-PtdIns3P liposomes,[3],subtle reduction
same,pKd,ctRetromer,5.30
same,pKd,zfRetromer,7.06
same,pKd,[4],~7.40
same,increase in Tm for the Vps26A-Vps35_1–390 subcomplex,[5],8 °C
same,effect on TBC1D5 localization to endosomal structures,[1],no discernible effect
same,GAP-stimulated GTP hydrolysis of Rab7a,[6],slight improvement
same,effect on melting temperature (Tm) of Vps29,Vps29,did not affect
same,pKd,Vps26BΔC-Vps35_1–390,~7.40
same,retromer ligands recovered with peptide-bound retromer,[7],"able to interact with TBC1D5, VARP, Fam21, SNX27, and the SNX3–DMT1-II complex"
TBC domain of human TBC1D5 (from UniProt Q92609 1-795) (domain or fragment),pKd,[8],6.43
